Measured values published in US7858635B2 (priority 2005, dated 2010).
Like-named read-outs stand apart in the source and are kept apart here.

Experiments:
M1 muscarinic receptor = biological target: T1, M1 muscarinic receptor (Homo sapiens, UniProt P11229); assay: Functional mobilization of intracellular calcium (FLIPR, Fluo-3), M1-CHO cells; format: cell-based; settings: for Emax: 100% efficacy is the maximum response obtained with the Carbachol control, read-out: M1 Efficacy
T1 construct: expressed in transfected cells; host or cells: CHO cells (M1-CHO, under zeocin and G418 selection)
T1 sequence (P11229 1-460): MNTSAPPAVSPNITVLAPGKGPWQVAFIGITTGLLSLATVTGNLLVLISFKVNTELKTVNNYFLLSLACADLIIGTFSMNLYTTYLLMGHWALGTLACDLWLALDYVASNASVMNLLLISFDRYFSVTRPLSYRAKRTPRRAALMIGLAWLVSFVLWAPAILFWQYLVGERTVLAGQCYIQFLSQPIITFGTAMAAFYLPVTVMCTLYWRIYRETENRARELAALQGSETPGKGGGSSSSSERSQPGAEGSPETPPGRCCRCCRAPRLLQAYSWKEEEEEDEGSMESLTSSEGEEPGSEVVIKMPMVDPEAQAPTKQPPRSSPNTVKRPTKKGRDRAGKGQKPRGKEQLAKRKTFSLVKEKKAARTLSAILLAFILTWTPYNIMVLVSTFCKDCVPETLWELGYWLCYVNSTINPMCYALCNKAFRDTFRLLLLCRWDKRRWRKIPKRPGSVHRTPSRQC
In short: (§1)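 Fluo-3 read-out, ex 488/em 540 nm, 60 sec on FLIPR 3. For agonist mode, compound added directly; for inhibition, 15 min compound pre-incubation before carbachol at EC80 (added as a 3× solution), or co-application. Buffer pH 7.4 with 1 mM probenecid; DMSO 0.5%.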

M4 muscarinic receptor = biological target: T2, M4 muscarinic receptor (Homo sapiens, UniProt P08173); assay: Functional mobilization of intracellular calcium (FLIPR, Fluo-3), M4-CHO cells; format: cell-based; settings: for Emax: 100% efficacy is the maximum response obtained with the Carbachol control, read-out: M4 Efficacy
T2 construct: expressed in transfected cells; host or cells: CHO cells (M4-CHO, under puromycin, zeocin and blasticidin selection)
T2 sequence (P08173 1-479): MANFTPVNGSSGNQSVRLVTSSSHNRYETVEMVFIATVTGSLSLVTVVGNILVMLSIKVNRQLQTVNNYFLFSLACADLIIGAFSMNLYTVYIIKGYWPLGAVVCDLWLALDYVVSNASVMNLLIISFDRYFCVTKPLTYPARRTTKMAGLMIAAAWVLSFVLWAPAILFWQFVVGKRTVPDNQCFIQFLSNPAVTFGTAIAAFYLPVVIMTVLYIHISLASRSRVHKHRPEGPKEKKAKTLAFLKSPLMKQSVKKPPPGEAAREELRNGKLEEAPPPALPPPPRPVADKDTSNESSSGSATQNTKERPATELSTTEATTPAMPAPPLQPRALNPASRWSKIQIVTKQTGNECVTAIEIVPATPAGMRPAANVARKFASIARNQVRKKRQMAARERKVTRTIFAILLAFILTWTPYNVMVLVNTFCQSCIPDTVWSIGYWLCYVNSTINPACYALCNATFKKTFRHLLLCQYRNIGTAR
In short: as §1

[1] = compound nos. 1-454, M1-CHO cells, calcium mobilization
[2] = compound nos. 1-454, M4-CHO cells, calcium mobilization

SMILES | M1 Activity (M1 muscarinic receptor; compound nos. 1-454) | Emax (M1 muscarinic receptor; compound nos. 1-454) [%] | M4 Activity (M4 muscarinic receptor; compound nos. 1-454) | Emax (M4 muscarinic receptor; compound nos. 1-454) [%] | M1 Activity (M1 muscarinic receptor; [1]) | M4 Activity (M4 muscarinic receptor; [2]) | Emax (M1 muscarinic receptor; compound nos. 455-509) [%] | M1 Activity (M1 muscarinic receptor; compounds 455-509) | Emax (M4 muscarinic receptor; compound nos. 455-509) [%] | M4 Activity (M4 muscarinic receptor; compounds 455-509)
CN(C)C(=O)N1CC2(CCN(CC3CCN(c4nccs4)C3)CC2)c2cc(F)ccc21 (stereo not shown) [compound 450] | ++ (activity was measured to be between 0.7 μM and 3.0 μM) | 65 to 85 | +++ (activity was measured to be less than or equal to 0.1 μM) | 55 to 70 |  |  |  |  |  | 
CCOC(=O)N1C2CCC1CC(N1CCC3(CC1)c1ccccc1C(=O)C3(C)C)C2 (stereo not shown) [compound 278] |  | 65 to 85 |  | 55 to 70 | ++ (activity was measured to be between 0.7 μM and 3.0 μM) | ++ (activity was measured to be between 0.1 μM and 4.0 μM) |  |  |  | 
CCOC(=O)N1CCC(N2CCC3(CC2)CN(C(=O)CC)c2ccc(F)cc23)CC1 [compound 317] |  | < 65 |  | < 55 | + (activity was measured to be greater than or equal to 3.0 μM) | + (activity was measured to be greater than or equal to 4.0 μM) |  |  |  | 
CC(=O)N1CC2(CCN(C3CCN(C(=O)OC(C)C)CC3)CC2)c2cc(F)ccc21 [compound 269] |  | 65 to 85 |  | > 70 | +++ (activity was measured to be less than or equal to 0.7 μM) | +++ (activity was measured to be less than or equal to 0.1 μM) |  |  |  | 
CCOC(=O)N1C2CCC1CC(N1CCC3(CC1)CN(C(=O)c1snnc1C)c1ccc(F)cc13)C2 (stereo not shown) [compound 59] |  | < 65 |  | 55 to 70 | +++ (activity was measured to be less than or equal to 0.7 μM) | ++ (activity was measured to be between 0.1 μM and 4.0 μM) |  |  |  | 
CN(C)C(=O)N1CC2(CCN(C3CCN(c4nccs4)CC3)CC2)c2ccccc21 [compound 504] |  |  |  |  |  |  | 25 to 100 | + (activity was measured to be greater than or equal to 5.0 μM) | 25 to 100 | ++ (activity was measured to be between 2.0 μM and 5.0 μM)
C#CCOC(=O)N1CCC(CN2CCC3(CC2)C[C@H](NC(C)=O)c2ccccc23)CC1 [compound 364] |  | > 85 |  | < 55 | +++ (activity was measured to be less than or equal to 0.7 μM) | + (activity was measured to be greater than or equal to 4.0 μM) |  |  |  | 
Fc1ccc2c(c1)C1(CCN(C3CC4CCC(C4)C3)CC1)CN2 (stereo not shown) [compound 377] | +++ (activity was measured to be less than or equal to 0.7 μM) | 65 to 85 | ++ (activity was measured to be between 0.1 μM and 4.0 μM) | 55 to 70 |  |  |  |  |  | 
CC(=O)N1CC2(CCN(C3CCN(C(=O)OC(C)C)CC3)CC2)c2cc(C)ccc21 [compound 380] | +++ (activity was measured to be less than or equal to 0.7 μM) | 65 to 85 | ++ (activity was measured to be between 0.1 μM and 4.0 μM) | 55 to 70 |  |  |  |  |  | 
CCOC(=O)N1CCC(N2CCC3(CC2)CN(C(=O)c2ccc(OC(F)(F)F)cc2)c2ccc(F)cc23)CC1 [compound 66] |  | > 85 |  | > 70 | +++ (activity was measured to be less than or equal to 0.7 μM) | +++ (activity was measured to be less than or equal to 0.1 μM) |  |  |  | 
CC(C)(C)COC(=O)N1C2CCC1CC(N1CCC3(CC1)COc1ccc(F)cc13)C2 (stereo not shown) [compound 247] |  | 65 to 85 |  | > 70 | ++ (activity was measured to be between 0.7 μM and 3.0 μM) | + (activity was measured to be greater than or equal to 4.0 μM) |  |  |  | 
CCCOC(=O)N1C2CCC1CC(N1CCC3(CC1)CN(C(=O)O[C@@H]1CCOC1)c1ccc(F)cc13)C2 (stereo partly shown) [compound 115] |  | 65 to 85 |  | < 55 | +++ (activity was measured to be less than or equal to 0.7 μM) | ++ (activity was measured to be between 0.1 μM and 4.0 μM) |  |  |  | 
CCOC(=O)N1CCC(N2CCC3(CC2)CN(CCOC)c2ccc(F)cc23)CC1 [compound 391] | ++ (activity was measured to be between 0.7 μM and 3.0 μM) | < 65 | + (activity was measured to be greater than or equal to 4.0 μM) | < 55 |  |  |  |  |  | 
O=C1CC2(CCN(C[C@@H]3C[C@H]4C=C[C@H]3C4)CC2)c2ccccc21 [compound 238] |  | < 65 |  | < 55 | + (activity was measured to be greater than or equal to 3.0 μM) | + (activity was measured to be greater than or equal to 4.0 μM) |  |  |  | 
CCOC(=O)N1CCC(N2CCC3(CC2)CN(C(=O)OCC)c2ccc(F)cc23)CC1 [compound 427] | ++ (activity was measured to be between 0.7 μM and 3.0 μM) | < 65 | + (activity was measured to be greater than or equal to 4.0 μM) | < 55 |  |  |  |  |  | 
COCCOC(=O)N1C2CCC1CC(N1CCC3(CC1)CN(C(C)=O)c1ccc(F)cc13)C2 (stereo not shown) [compound 76] |  | 65 to 85 |  | 55 to 70 | +++ (activity was measured to be less than or equal to 0.7 μM) | ++ (activity was measured to be between 0.1 μM and 4.0 μM) |  |  |  | 
COC(=O)N1CC2(CCN(C3CC4CCC(C3)N4C(=O)OC(C)C)CC2)c2cc(F)ccc21 (stereo not shown) [compound 97] |  | 65 to 85 |  | < 55 | +++ (activity was measured to be less than or equal to 0.7 μM) | + (activity was measured to be greater than or equal to 4.0 μM) |  |  |  | 
CC(=O)N1CC2(CCN(C3CCN(C(=O)O[C@@H]4CCOC4)CC3)CC2)c2cc(C)ccc21 [compound 279] |  | < 65 |  | < 55 | ++ (activity was measured to be between 0.7 μM and 3.0 μM) | ++ (activity was measured to be between 0.1 μM and 4.0 μM) |  |  |  | 
CCOC(=O)N1CCC(N2CCC3(CC2)C[C@H](NC(C)=O)c2ccccc23)CC1 [compound 430] | ++ (activity was measured to be between 0.7 μM and 3.0 μM) | < 65 | + (activity was measured to be greater than or equal to 4.0 μM) | < 55 |  |  |  |  |  | 
CC(C)OC(=O)N1C2CCC1CC(N1CCC3(CC1)CN(C(=O)C1CC1)c1ccc(F)cc13)C2 (stereo not shown) [compound 345] |  | < 65 |  | < 55 | +++ (activity was measured to be less than or equal to 0.7 μM) | ++ (activity was measured to be between 0.1 μM and 4.0 μM) |  |  |  | 
CCOC(=O)N1CCC(CN2CCC3(CC2)CN(C(C)=O)c2ccc(F)cc23)CC1 [compound 60] |  | 65 to 85 |  | 55 to 70 | ++ (activity was measured to be between 0.7 μM and 3.0 μM) | + (activity was measured to be greater than or equal to 4.0 μM) |  |  |  | 
CC(=O)N[C@H]1CC2(CCN(CC3CCN(C(=O)OC(C)C)CC3)CC2)c2ccccc21 [compound 399] | ++ (activity was measured to be between 0.7 μM and 3.0 μM) | 65 to 85 | ++ (activity was measured to be between 0.1 μM and 4.0 μM) | < 55 |  |  |  |  |  | 
CC(=O)N1CC2(CCN(C3CCN(c4nc(C)ns4)CC3)CC2)c2ccccc21 [compound 482] |  |  |  |  |  |  | > 100 | +++ (activity was measured to be less than or equal to 2.0 μM) | 25 to 100 | ++ (activity was measured to be between 2.0 μM and 5.0 μM)
CCOC(=O)N1C2CCC1CC(N1CCC3(CC1)CN(C(=O)c1ccc(F)cc1)c1ccc(F)cc13)C2 (stereo not shown) [compound 222] |  | < 65 |  | < 55 | + (activity was measured to be greater than or equal to 3.0 μM) | + (activity was measured to be greater than or equal to 4.0 μM) |  |  |  | 
c1ccc2c(c1)NCC21CCN(CC2CC3CCC2C3)CC1 (stereo not shown) [compound 110] |  | < 65 |  | < 55 | +++ (activity was measured to be less than or equal to 0.7 μM) | ++ (activity was measured to be between 0.1 μM and 4.0 μM) |  |  |  | 
